Test results as given in article PMC8286840, “Identifying SARS-CoV-2 antiviral compounds by screening for small molecule inhibitors of Nsp3 papain-like protease” (Biochemical Journal, 2021).
Where a name gives a salt, the structure may show the parent alone. Read-outs that look alike come from different tables or passages of the source. Where a SMILES comes first, the peptide text is derived from it. [ ]: non-standard residue; d: D form. Nle = CCCC[C@H](N)C(=O)O

Assays:
[1] = molecular target: T1, SARS-CoV-2 PLpro (nsp3 1564–1878) (Severe acute respiratory syndrome coronavirus 2, UniProt P0DTD1); assay: biochemical; design: FRET-quenched peptide (Pro3) cleavage by PLpro, 10 min pre-incubation, slope over 20 min, normalised to no-compound control; settings: low concentration screen, read-out: % of control remaining
[2] = molecular target: T1, SARS-CoV-2 PLpro (nsp3 1564–1878); assay: biochemical; design: FRET-quenched peptide (Pro3) cleavage by PLpro, 10 min pre-incubation, slope over 20 min, normalised to no-compound control; settings: high concentration screen, read-out: % of control remaining

## CCOc1cc2ncc(C#N)c(Nc3ccc(F)c(Cl)c3)c2cc1NC(=O)/C=C/CN(C)C [(2E)-N-[4-(3-chloro-4-fluoroanilino)-3-cyano-7-ethoxy-6-quinolinyl]-4-(dimethylamino)-2-butenamide]
[1]; Well no.=5707
  remaining activity at 1.25 µM: 101%
[2]; Well no.=5707
  remaining activity at 3.75 µM: 102%

## CCCOc1cc2c(cc1\C(C)=C/C=C/C(C)=C/C(=O)O)C(C)(C)CCC2(C)C [(2E,4E,6Z)-3-methyl-7-(5,5,8,8-tetramethyl-3-propoxy-5,6,7,8-tetrahydro-2-naphthalenyl)-2,4,6-octatrienoic acid]
[1]; Well no.=6004
  remaining activity at 1.25 µM: 92.7%
[2]; Well no.=6004
  remaining activity at 3.75 µM: 93%

## CCN(C)C(=O)Oc1cccc([C@H](C)N(C)C)c1 [(2R,3R)-2,3-dihydroxybutanedioic acid compound with 3-[(1S)-1-(dimethylamino)ethyl]phenyl ethyl(methyl)carbamate (1:1)]
[1]; Well no.=5811
  remaining activity at 1.25 µM: 96.9%
[2]; Well no.=5811
  remaining activity at 3.75 µM: 98%

## O=C1c2c(O)cc(O)cc2O[C@H](c2cc(O)c(O)c(O)c2)[C@H]1O [(2R,3R)-3,5,7-trihydroxy-2-(3,4,5-trihydroxyphenyl)-2,3-dihydro-4H-chromen-4-one]
[1]; Well no.=5388
  remaining activity at 1.25 µM: 106%
[2]; Well no.=5388
  remaining activity at 3.75 µM: 111%

## Nc1ncnc2c1nc(N)n2[C@@H]1O[C@H](CO)[C@@H](O)[C@H]1O [(2R,3R,4S,5R)-2-(6,8-diamino-9H-purin-9-yl)-5-(hydroxymethyl)tetrahydrofuran-3,4-diol]
[1]; Well no.=5532
  remaining activity at 1.25 µM: 106%
[2]; Well no.=5532
  remaining activity at 3.75 µM: 105%

## CC1CNc2c(cccc2S(=O)(=O)N[C@@H](CCCNC(=N)N)C(=O)N2CC[C@@H](C)C[C@@H]2C(=O)O)C1 (stereo partly drawn) [(2R,4R)-1-((2S)-5-{[amino(imino)methyl]amino}-2-{[(3-methyl-1,2,3,4-tetrahydro-8-quinolinyl)sulfonyl]amino}pentanoyl)-4-methyl-2-piperidinecarboxylic acid hydrate]
[1]; Well no.=5613
  remaining activity at 1.25 µM: 96%
[2]; Well no.=5613
  remaining activity at 3.75 µM: 96.5%

## CCCC[C@@H](C=O)NC(=O)[C@H](CC(C)C)NC(=O)[C@H](CC(C)C)NC(C)=O [(2S)-2-(acetylamino)-N-[(1S)-1-({[(1S)-1-formylpentyl]amino}carbonyl)-3-methylbutyl]-4-methylpentanamide] (Ac-Leu-Leu-[Nle]-aldehyde)
[1]; Well no.=5774
  remaining activity at 1.25 µM: 95.7%
[2]; Well no.=5774
  remaining activity at 3.75 µM: 95.3%

## CC(C)C[C@H](NC(=O)[C@@H](O)[C@H](N)Cc1ccc([N+](=O)[O-])cc1)C(=O)O [(2S,3R)-3-Amino-2-hydroxy-4-(4-nitrophenyl)butanoyl-L-leucine hydrochloride]
[1]; Well no.=67
  remaining activity at 1.25 µM: 106%
[2]; Well no.=67
  remaining activity at 3.75 µM: 104%

## CCOC(=O)[C@H](CCc1ccccc1)N[C@@H](C)C(=O)N1CCC[C@H]1C(=O)O [(2Z)-2-butenedioic acid compound with (2S)-1-((2S)-2-{[(1S)-1-(ethoxycarbonyl)-3-phenylpropyl]amino}propanoyl)-2-pyrrolidinecarboxylic acid (1:1)]
[1]; Well no.=5659
  remaining activity at 1.25 µM: 102%
[2]; Well no.=5659
  remaining activity at 3.75 µM: 101%

## C/C(Nc1ccccc1)=C1\C(=O)NC(Cc2ccccc2)C1=O (stereo not drawn) [(3E)-3-(1-anilinoethylidene)-5-benzyl-2,4-pyrrolidinedione]
[1]; Well no.=5686
  remaining activity at 1.25 µM: 96.9%
[2]; Well no.=5686
  remaining activity at 3.75 µM: 97.8%

## COc1cc2c(cc1OC)[C@H]1CC(=O)[C@H](CC(C)C)CN1CC2 [(3R,11bR)-3-isobutyl-9,10-dimethoxy-1,3,4,6,7,11b-hexahydro-2H-pyrido[2,1-a]isoquinolin-2-one]
[1]; Well no.=5582
  remaining activity at 1.25 µM: 93.7%
[2]; Well no.=5582
  remaining activity at 3.75 µM: 98.6%

## C=C[C@]1(C)C[C@@H](OC(=O)CO)[C@]2(C)[C@H](C)CC[C@]3(CCC(=O)[C@H]32)[C@@H](C)[C@@H]1O [(3aR,4R,5R,7S,8S,9R,9aS,12R)-8-hydroxy-4,7,9,12-tetramethyl-3-oxo-7-vinyldecahydro-4,9a-propanocyclopenta[8]annulen-5-yl 2-hydroxyacetate]
[1]; Well no.=5764
  remaining activity at 1.25 µM: 97.1%
[2]; Well no.=5764
  remaining activity at 3.75 µM: 97.7%

## CCCCCCCCCCCC1N[C@H](C(=O)O)CS1 (stereo partly drawn) [(4R) - 2-Undecyl-4-thiazolidinecarboxylic acid]
[1]; Well no.=5484
  remaining activity at 1.25 µM: 104%
[2]; Well no.=5484
  remaining activity at 3.75 µM: 106%

## Cc1ccc(CN2C(=O)S/C(=C\c3ccc(Cl)cc3)C2=O)cc1 [(5Z)-5-(4-chlorobenzylidene)-3-(4-methylbenzyl)-1,3-thiazolidine-2,4-dione]
[1]; Well no.=6027
  remaining activity at 1.25 µM: 94.6%
[2]; Well no.=6027
  remaining activity at 3.75 µM: 94.7%

## CC(O)C(O)C1CNc2nc(N)[nH]c(=O)c2N1 [(6R)-5,6,7,8-Tetrahydro-L-biopterin hydrochloride]
[1]; Well no.=1383
  remaining activity at 1.25 µM: 101%
[2]; Well no.=1383
  remaining activity at 3.75 µM: 102%

## C=C1C=C(C)n2nc(CC3C(=O)C[C@](CCc4cc(CC)nc(CC)c4)(C4CCCC4)OC3=O)nc2N1 (stereo partly drawn) [(6R)-6-cyclopentyl-6-(2-(2,6-diethylpyridin-4-yl)ethyl)-3-((7-methyl-5-methylene-4,5-dihydro-[1,2,4]triazolo[1,5-a]pyrimidin-2-yl)methyl)dihydro-2H-pyran-2,4(3H)-dione]
[1]; Well no.=5607
  remaining activity at 1.25 µM: 102%
[2]; Well no.=5607
  remaining activity at 3.75 µM: 105%

## CCCCCC/C=C/C=C\CCCCCCCC(=O)O [(9Z,11E)-Octadecadienoic acid]
[1]; Well no.=4354
  remaining activity at 1.25 µM: 106%
[2]; Well no.=4354
  remaining activity at 3.75 µM: 106%

## CC(C)=CCC[C@](C)(O)[C@H]1CC[C@]2(C)[C@@H]1[C@H](O)C[C@@H]1[C@@]3(C)CC[C@H](O)C(C)(C)[C@@H]3CC[C@]12C [(20S)-Protopanaxadiol]
[1]; Well no.=6300
  remaining activity at 1.25 µM: 106%
[2]; Well no.=6300
  remaining activity at 3.75 µM: 99.5%

## CC(C)=CCC[C@](C)(O)[C@H]1CC[C@]2(C)[C@@H]1[C@H](O)C[C@@H]1[C@@]3(C)CC[C@H](O)C(C)(C)[C@@H]3[C@@H](O)C[C@]12C [(20S)-Protopanaxatriol]
[1]; Well no.=8387
  remaining activity at 1.25 µM: 96.6%
[2]; Well no.=8387
  remaining activity at 3.75 µM: 91.4%

## CC(C)CCC[C@H](C)[C@H]1CC[C@H]2[C@@H]3CCC4=CC(=NO)CC[C@]4(C)[C@H]3CC[C@]12C [(20S)-cholest-4-en-3-one oxime]
[1]; Well no.=5966
  remaining activity at 1.25 µM: 94.3%
[2]; Well no.=5966
  remaining activity at 3.75 µM: 96.1%

## CN1CCc2cc3c(cc2[C@H]1[C@@H]1OC(=O)c2c1ccc1c2OCO1)OCO3 [(+)-Bicuculline]
[1]; Well no.=369
  remaining activity at 1.25 µM: 103%
[1]; Well no.=3679
  remaining activity at 1.25 µM: 99.7%
[2]; Well no.=369
  remaining activity at 3.75 µM: 98.1%
[2]; Well no.=3679
  remaining activity at 3.75 µM: 99.2%

## COc1ccc2c(c1O)-c1c3c(cc4c1[C@H](C2)N(C)CC4)OCO3 [(+)-Bulbocapnine hydrochloride]
[1]; Well no.=494
  remaining activity at 1.25 µM: 102%
[2]; Well no.=494
  remaining activity at 3.75 µM: 102%

## CC(C)(C)[C@]1(O)CCN2C[C@H]3c4ccccc4CCc4cccc(c43)[C@@H]2C1 [(+)-Butaclamol hydrochloride]
[1]; Well no.=732
  remaining activity at 1.25 µM: 98.3%
[2]; Well no.=732
  remaining activity at 3.75 µM: 98.3%

## Oc1cc(O)c2c(c1)O[C@H](c1ccc(O)c(O)c1)[C@@H](O)C2 [(+)-Catechin Hydrate]
[1]; Well no.=283
  remaining activity at 1.25 µM: 98%
[2]; Well no.=283
  remaining activity at 3.75 µM: 99.7%

## CN1Cc2c(ccc3c2OCO3)[C@@H]2[C@H]1c1cc3c(cc1C[C@@H]2O)OCO3 [(+)-Chelidonine]
[1]; Well no.=3439
  remaining activity at 1.25 µM: 95.5%
[2]; Well no.=3439
  remaining activity at 3.75 µM: 97.2%

## C=C[C@H]1CN2CC[C@H]1C[C@@H]2[C@@H](O)c1ccnc2ccccc12 [(+)-Cinchonine]
[1]; Well no.=3198
  remaining activity at 1.25 µM: 109%
[2]; Well no.=3198
  remaining activity at 3.75 µM: 107%
